Results: patent US12692478B2, “Populations of enriched regulatory T cells and methods for producing same” (Cellenkos Inc., priority 2021, dated 2026)

Tests used:
SLE-PBMC = experiment: IFN-gamma release by pathogenic lupus cells (SLE-PBMC); type: cell-based, human; settings: control, non-specific inflammatory stimulus
Excerpt: FIG. 32 is a bar graph depicting the amount of interferon (IFN)—gamma released by pathogenic lupus cells in the presence or absence of combinations of (1) activated Treg cells; (2) ruxolitinib; and/or (3) camptothecin. Rux=ruxolitinib. SLE-PBMC=peripheral blood mononuclear cells derived from subjects with systemic lupus erythematosus. D6=Day 6.

[1] = tested on: graft versus host disease (GVHD); settings: mouse, in vivo
Procedure: FIG. 33 depicts a schematic for treatment of a xenogeneic mouse graft versus host disease (GVHD) model with a ruxolitinib and activated Treg cells regimen. PBMC=peripheral blood mononuclear cells.
A xenogeneic mouse graft versus host disease (GVHD) model was treated with a ruxolitinib and activated CB Treg cells regimen, as depicted in FIG. 33. NSG mice underwent sublethal irradiation on day −1 followed by injection of 1×10^7 donor peripheral blood (PB) mononuclear cells (MNCs) on day 0. Oral ruxolitinib at 1 mg daily was fed continuously to the mice in the presence or absence of 1×10^7 CB Treg cells, tagged with CellTrace™ Violet dye (ThermoFisher), administered on days +4, +7, +11, +18. Mice were followed every other day for weight, GVHD score and survival. Serial blood draws were performed to analyze for cell compartment and cytokine assays.

Structure (SMILES)	IFNγ secretion from CB Treg cells (SLE-PBMC)	CB Treg persistence [1]
CC[C@@]1(O)C(=O)OCc2c1cc1n(c2=O)Cc2cc3ccccc3nc2-1 [Camptothecin]	does not increase	
N#CC[C@H](C1CCCC1)n1cc(-c2ncnc3[nH]ccc23)cn1 [ruxolitinib]		improved CB Treg persistence
